Where “and” joins values, the source holds several entries; their conditions need not be identical. Equal entries are not always repeated. Structures can show the parent of a compound that is named as a salt.
What was measured:
[1] = test system: insect eggs; conditions: in vivo; cited from earlier work
[2] = test system: Sitophilus granarius (broodmixture); conditions: in vivo
[3] = test system: Ephestia kuehniella (50 eggs); conditions: in vivo
[4] = test system: Sitophilus granarius, Ephestia kuehniella eggs, Tribolium castaneum and brood; conditions: in vivo
[5] = test system: Tribolium castaneum 30 live beetles and brood; conditions: in vivo

## O=C=S [carbonyl sulfide]
[1]
  minimum concentration for achieving an ovicidal action: 5 g/m^3

## COC=O [methyl formate]
[1]
  minimum concentration for achieving an ovicidal action: 20 g/m^3

## CN=C=S [methyl isothiocyanate]
[1]
  minimum concentration for achieving an ovicidal action: 5 g/m^3

## CC#N [acetonitrile]
[1]
  minimum concentration for achieving an ovicidal action: 10 g/m^3

## O=S(=O)(F)F [SO2F2, sulfuryl fluoride]
[2]
  Offspr. (offspring in the fumigation test): 0 beetles
[3]
  Offspr. (offspring in the fumigation test): 0
[4]
  offspring produced: offspring were produced
[5]
  Offspr. (offspring in the fumigation test): 3 beetles and 4 beetles and 5 beetles

Source: patent US6921545B2 (priority 2001, dated 2005)
